Data published in patent US6624149B2, “Method for nucleic acid transfection of cells” (Genteric, Inc., priority 2000, dated 2003).

Test system: rat salivary gland (submandibular gland)
Experiment: Intraductal transfection of rat salivary gland with pCMV.FOX.Luc-2, luciferase assay
Assay type: in vivo
Conditions: 48 hours
Method: Nucleic acid/transition metal enhancer mixtures were prepared by sequentially adding deionized water or a buffered solution, DNA, and a desired transition metal enhancer to a polystyrene tube with mixing. “Free” (i.e., “Naked”) DNA controls were prepared by sequentially adding DNA to water or a buffered solution
Male Sprague-Dawley rats (260-280 g) were fasted the night prior to treatment. After administration of the anesthesia (see Section 6.1.3), both right and left salivary gland ducts (specifically, Wharton's duct) were cannulated with fine polyurethane tubing (i.d. 0.005″) and cemented into the desired location. Atropine was then administered subcutaneously (0.5 mg/kg) and, after eight minutes, 50 μl of the nucleic acid/transition metal enhancer mixture was injected, infused, instilled or administered at the ductal orifice or directly into the duct at any point along its length. See Goldfine, Nature Biotechnology 15:1378, 1997.
Regardless of whether a liposome/transition metal/nucleic acid mixture or a nucleic acid/transition metal enhancer mixture was delivered, the tubing and mixture was kept in place for ten additional minutes after application of the mixture prior to removal. At 48 hours post atropine administration, the rats were anesthetized by intraperitoneal injection of pentobarbital (50 mg/kg). The right and left submandibular glands were surgically removed, and the tissues were assayed for any observable reporter gene (luciferase of hGH) expression using the methods described below.
The presently claimed invention describes a new method using a combination of a transition metal enhancer and a nucleic acid of interest for gene delivery. The present invention provides a method which may enhance gene expression by improving the efficiency of gene delivery. This change in gene expression can be quantitated using various assays, such as the luciferase assay. de Wet et al., Molec. Cell Biol. 7:725, 1987. In various experiments described herein, the right and left submandibular glands were removed from the male Sprague-Dawley rats at 48 hours post administration of the pCMV.FOX.Luc-2 containing solution. In additional experiments other organs, such as the rat lungs, were used.
In experiments in which submandibular glands were tested, the amount of luciferase present in the right and left submandibular gland of each male Sprague-Dawley rat was measured independently and treated as separate, individual experiments (e.g., trials) because the amount of luciferase expressed by one submandibular gland is independent of the amount of luciferase expressed in the other submandibular gland. Therefore, each submandibular gland was independently lysed in lysis buffer (1.0 ml buffer per 0.1 g tissue) to create a lysis homogenate. The lysis buffer contained 100 mM K2PO4 pH 7.0, 1 mM dithiothreitol, and 1% Triton X-100. A 100 μl aliquot of lysis homogenate from each submandibular gland was analyzed for luciferase activity (de Wet et al., Molec. Cell Biol. 7:725, 1987) using a Monolight 2010 luminometer (Analytical Luminescence Laboratories). Accordingly, luciferase light emissions from each aliquot of the lysis homogenate were measured over a ten second period.
Activity was expressed as relative light units, values collectively representing the assay conditions, luciferase concentration, luminometer photomultiplier tube sensitivity and background. Using well known techniques, the luciferase light units may be converted, for example, to picograms of luciferase protein. See, e.g., Felgner et al., U.S. Pat. No. 5,580,899 at Example 13. All experiments were performed in duplicate. In experiments using submandibular glands, data from each individual submandibular gland lysis homogenate is reported as a single trial.

[Cl-].[Cl-].[Zn+2] [ZnCl2, zinc chloride]
Average relative light units (Table 2, metal chloride 0.9 mM, 32 μg DNA in 50 μl, eight glands): 63842 relative light units | Average relative light units (Table 3, metal chloride 0.9 mM, 32 μg DNA in 50 μl, Tris-HCl/EDTA, eight glands): 5685 relative light units | Average relative light units (Table 6, zinc 3.6 mM, 128 μg DNA in 50 μl): 243362 relative light units | Average relative light units (Table 7, ZnCl2 3.6 mM, pH 5.5, 128 μg DNA in 50 μl): 252446 relative light units | Average relative light units (Table 7, ZnCl2 3.6 mM, pH 6.5, 128 μg DNA in 50 μl): 196002 relative light units | Average relative light units (Table 7, ZnCl2 3.6 mM, pH 7.5, 128 μg DNA in 50 μl): 260340 relative light units | Average relative light units (Table 7, ZnCl2 3.6 mM, pH 8.5, 128 μg DNA in 50 μl): 277958 relative light units
